{"source": "patent US8114900B2", "about": "“Amorphous carvedilol dihydrogen phosphate” (Teva Pharmaceutical Industries Ltd., priority 2006, dated 2012)", "key": {"[1]": {"assay": "% crystallinity calculation using the WinXRD 2.0 program", "assay_type": "physicochemical", "settings": "from XRD", "excerpt": "2.0 program (FIGS. 46, 48, 39, 40, 43, 53, 50, 41)."}, "[2]": {"assay": "Stability upon heating under extreme heat conditions (oven)", "assay_type": "physicochemical", "settings": "80° C. for 30 min in oven"}, "[3]": {"assay": "Particle size dimensions from microscope images", "assay_type": "physicochemical", "excerpt": "It has the advantage of being able to reduce the particle size to a range of smaller dimensions (according to the requirements of the formulator who prepare the capsule or tablet), while when starting in advance with a smaller size of powder (Form I) limits this option. In addition, small particles, reduce flowability."}, "[4]": {"assay": "Solubility of solid forms at pH=7 and 25° C.", "assay_type": "physicochemical", "method": "The amorphous form (1:1) of the present invention has higher solubility with compared to Form I at pH=7 and 25° C.: […]"}, "[5]": {"settings": "cited from earlier work"}}, "note": "Like-named read-outs stand apart in the source and are kept apart here.", "data": [{"smiles": "COc1ccccc1OCCNCC(O)COc1cccc2[nH]c3ccccc3c12.O=P(O)(O)O", "note": "(centres unmarked) [Form P, carvedilol dihydrogen phosphate]", "values": [{"measurement": "% crystallinity", "setting": "[1]; listed as P", "result": "about 85%"}]}, {"smiles": "COc1ccccc1OCCNCC(O)COc1cccc2[nH]c3ccccc3c12.O=P(O)(O)O", "note": "(centres unmarked) [Form F, carvedilol dihydrogen phosphate]", "values": [{"measurement": "stability upon heating (solid form)", "setting": "[2]; listed as F", "result": "stable upon heating"}, {"measurement": "% crystallinity", "setting": "[1]; listed as F", "result": "about 87%"}, {"measurement": "particle size dimensions", "setting": "[3]; listed as F", "result": "50-200 μm"}]}, {"smiles": "COc1ccccc1OCCNCC(O)COc1cccc2[nH]c3ccccc3c12.O=P(O)(O)O", "note": "(centres unmarked) [Form N, carvedilol dihydrogen phosphate]", "values": [{"measurement": "% crystallinity", "setting": "[1]; listed as N", "result": "about 86%"}, {"measurement": "particle size dimensions", "setting": "[3]; listed as N", "result": "200-400 μm"}]}, {"smiles": "COc1ccccc1OCCNCC(O)COc1cccc2[nH]c3ccccc3c12.O=P(O)(O)O", "note": "(centres unmarked) [Form I, carvedilol dihydrogen phosphate]", "values": [{"measurement": "solubility", "setting": "[4]; listed as I (′027)", "result": 9.6, "unit": "µg/mL"}, {"measurement": "% crystallinity", "setting": "[1]; listed as I", "result": "about 68%"}, {"measurement": "particle size dimensions", "setting": "[3]; listed as I", "result": "less than 20 μm"}]}, {"smiles": "COc1ccccc1OCCNCC(O)COc1cccc2[nH]c3ccccc3c12", "note": "(racemic) [carvedilol, (±)-1-(Carbazol-4-yloxy)-3-[[2-(o-methoxyphenoxy)ethyl]amino]-2-propanol]", "values": [{"measurement": "solubility", "setting": "[5]; in alkaline media", "result": "< 1", "unit": "µg/mL"}, {"measurement": "solubility", "setting": "[5]; increases with decreasing pH, upper value", "result": "up to 100 μg/mL"}]}, {"smiles": "COc1ccccc1OCCNCC(O)COc1cccc2[nH]c3ccccc3c12.O=P(O)(O)O", "note": "(centres unmarked) [Form IV, reference compound]", "values": [{"measurement": "stability upon heating (solid form)", "setting": "[2]", "result": "transforms to amorphous form"}]}, {"smiles": "COc1ccccc1OCCNCC(O)COc1cccc2[nH]c3ccccc3c12.O=P(O)(O)O", "note": "(centres unmarked) [Form F1, carvedilol dihydrogen phosphate]", "values": [{"measurement": "stability upon heating (solid form)", "setting": "[2]; listed as F1", "result": "stable upon heating"}, {"measurement": "% crystallinity", "setting": "[1]; listed as F1", "result": "about 86%"}, {"measurement": "particle size dimensions", "setting": "[3]; listed as F1", "result": "50-150 μm"}]}, {"smiles": "COc1ccccc1OCCNCC(O)COc1cccc2[nH]c3ccccc3c12.O=P(O)(O)O", "note": "(centres unmarked) [Amorphous, carvedilol dihydrogen phosphate]", "values": [{"measurement": "solubility", "setting": "[4]", "result": 14.9, "unit": "µg/mL"}]}, {"smiles": "COc1ccccc1OCCNCC(O)COc1cccc2[nH]c3ccccc3c12.O=P(O)(O)O", "note": "(centres unmarked) [Form R, carvedilol dihydrogen phosphate]", "values": [{"measurement": "stability upon heating (solid form)", "setting": "[2]; listed as R", "result": "stable upon heating"}, {"measurement": "% crystallinity", "setting": "[1]; listed as R", "result": "about 86%"}]}, {"smiles": "COc1ccccc1OCCNCC(O)COc1cccc2[nH]c3ccccc3c12.O=P(O)(O)O", "note": "(centres unmarked) [Form L, carvedilol dihydrogen phosphate]", "values": [{"measurement": "stability upon heating (solid form)", "setting": "[2]; listed as L", "result": "stable upon heating"}, {"measurement": "% crystallinity", "setting": "[1]; listed as L", "result": "about 88%"}]}, {"smiles": "COc1ccccc1OCCNCC(O)COc1cccc2[nH]c3ccccc3c12.O=P(O)(O)O", "note": "(centres unmarked) [Form L1, carvedilol dihydrogen phosphate]", "values": [{"measurement": "stability upon heating (solid form)", "setting": "[2]; listed as L1", "result": "stable upon heating"}, {"measurement": "% crystallinity", "setting": "[1]; listed as L1", "result": "about 85%"}]}, {"smiles": "COc1ccccc1OCCNCC(O)COc1cccc2[nH]c3ccccc3c12.O=P(O)(O)O", "note": "(centres unmarked) [Form Y, carvedilol dihydrogen phosphate]", "values": [{"measurement": "particle size dimensions", "setting": "[3]; listed as Y", "result": "20-100 μm"}]}]}
